The values that follow come from patent publication US20240218022A1, “ANTI-VISTA MACROCYCLIC PEPTIDES AND COMPOSITIONS” (BRISTOL-MYERS SQUIBB COMPANY, priority 2022, published 2024).

Starred links: 1 amine or outer side, 2 acyl side, 3 side chain; linkers in the order of their positions; H or OH if unused. Positions of bridges follow the written chain, without caps; N, C: chain ends. Non-standard residues stand in square brackets, D forms with d. Residues, ends and D or L forms follow the SMILES beside them. Tyr(3-Cl) = N[C@@H](Cc1ccc(O)c(Cl)c1)C(=O)O; Phe(3-Me) = Cc1cccc(C[C@H](N)C(=O)O)c1; γGlu = O=C(O)[C@H](CCC(=O)[*:2])N[*:1]; 2Nal = N[C@@H](Cc1ccc2ccccc2c1)C(=O)O; βAsp = O=C(O)[C@H](CC(=O)[*:2])N[*:1]; Ahp(2) = CCCCC[C@H](N)C(=O)O; NMeNle = CCCC[C@H](NC)C(=O)O; Tle = CC(C)(C)[C@H](N)C(=O)O; NHexGly = CCCCCCNCC(=O)O; Nle = CCCC[C@H](N)C(=O)O; Orn = NCCC[C@H](N)C(=O)O; Aun = NCCCCCCCCCCC(=O)O; AEEA = NCCOCCOCC(=O)O

As usually defined, the IC50 is the concentration that inhibits the measured activity by half.

In the experiment the target is T1, mouse VISTA (mVISTA) (Mus musculus, UniProt Q9D659).
T1 construct: expressed in transfected cells; host or cells: Human embryonic kidney 293T cells
T1 sequence (Q9D659 33-308): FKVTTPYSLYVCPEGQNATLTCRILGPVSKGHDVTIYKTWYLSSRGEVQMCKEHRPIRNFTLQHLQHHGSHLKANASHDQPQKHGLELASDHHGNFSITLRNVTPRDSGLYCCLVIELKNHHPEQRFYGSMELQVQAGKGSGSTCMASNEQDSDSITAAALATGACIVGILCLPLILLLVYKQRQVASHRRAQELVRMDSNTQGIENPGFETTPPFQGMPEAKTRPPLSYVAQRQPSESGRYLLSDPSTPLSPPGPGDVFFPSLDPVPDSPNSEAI
The experiment can be described thus: Cell-Based Binding High-Content Assay For mVISTA (HC CBA mVISTA). Particulars: cell-based binding high-content assay; read-out: HC CBA mVISTA IC50. In outline:
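293T cells expressing mouse VISTA, with compounds added either after seeding ("no wash") or before seeding and then washed out after 1 h. Biotinylated peptide 2 nM for 30 min at room temperature, then detection with Alexa 647–streptavidin. After fixation with Hoechst stain, plates were high-content imaged; IC50 from four-parameter logistic fit.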
For `CCCCCCN1CC(=O)N[C@@H](Cc2ccc(O)cc2)C(=O)N[C@@H](CCCC)C(=O)N[C@@H](CC(N)=O)C(=O)N[C@@H](CCCNC(=N)N)C(=O)N(C)[C@@H](CCCC)C(=O)N[C@@H](CCCCC)C(=O)N2CCC[C@H]2C(=O)N[C@@H](C(C)(C)C)C(=O)N[C@@H](CO)C(=O)N[C@H](C(=O)NCC(=O)NCCOCCOCC(=O)N[C@@H](CCC(=O)NCCOCCOCC(=O)NCCCCCCCCCCC(=O)O)C(=O)O)CSCC(=O)N[C@@H](Cc2ccccc2)C(=O)N[C@@H](Cc2cccc(C)c2)C(=O)N[C@@H](CC(=O)O)C1=O` [compound 2330] ({CH2CO}-F[Phe(3-Me)]D[NHexGly]Y[Nle]NR[NMeNle][Ahp(2)]P[Tle]SCG[AEEA][γGlu][AEEA][Aun]-OH; thioether N-14), the IC50 was 18 nM.
Turning to `CCCCCCN1CC(=O)N[C@@H](Cc2ccc(O)cc2)C(=O)N[C@@H](CCCC)C(=O)N[C@@H](CC(N)=O)C(=O)N[C@@H](CCCNC(=N)N)C(=O)N(C)[C@@H](CCCC)C(=O)N[C@@H](CCCCC)C(=O)N2CCC[C@H]2C(=O)N[C@@H](C(C)(C)C)C(=O)N[C@@H](CO)C(=O)N[C@H](C(=O)NCC(=O)NCCOCCOCC(=O)N[C@@H](CCC(=O)NCCOCCOCC(=O)NCCCCCCCCCCC(=O)O)C(=O)O)CSCC(=O)N[C@@H](Cc2ccc3ccccc3c2)C(=O)N[C@@H](Cc2ccc(O)cc2)C(=O)N[C@@H](CC(=O)O)C1=O` [compound 2333] ({CH2CO}-[2Nal]YD[NHexGly]Y[Nle]NR[NMeNle][Ahp(2)]P[Tle]SCG[AEEA][γGlu][AEEA][Aun]-OH; thioether N-14), the IC50 came out at 46.8 nM.
For the compound `CCCCCCN1CC(=O)N[C@@H](Cc2ccc(O)c(Cl)c2)C(=O)N[C@@H](CC(C)C)C(=O)N[C@@H](CC(N)=O)C(=O)N[C@@H](CCCN)C(=O)N(C)[C@@H](CCCC)C(=O)N[C@@H](CCCCC)C(=O)N2CCC[C@H]2C(=O)N[C@@H](C(C)(C)C)C(=O)N[C@@H](CO)C(=O)N[C@H](C(=O)N[C@@H](CC(=O)NCCOCCOCC(=O)N[C@@H](CC(=O)O)C(=O)NCCOCCOCC(=O)NCCCCCCCCCCC(=O)O)C(=O)O)CSCC(=O)N[C@@H](Cc2ccccc2)C(=O)N[C@@H](Cc2ccc(O)cc2)C(=O)N[C@@H](CC(=O)O)C1=O` [compound 2336] ({CH2CO}-FYD[NHexGly][Tyr(3-Cl)]LN[Orn][NMeNle][Ahp(2)]P[Tle]SC[βAsp][AEEA]D[AEEA][Aun]-OH; thioether N-14), the IC50 turned out to be 24 nM.
